Assay results published in patent US8952024B2, “Herbicidal pyrimidone derivatives” (E I du Pont de Nemours and Company, priority 2009, dated 2015).

Legend:
Format in all cases: in vivo
[1] = system: barnyardgrass (Echinochloa crus-galli); assay: Test A pre-/postemergence plant response
Method in brief: (§1)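 Injury was scored visually after roughly ten days against untreated controls, 0 = no effect, 100 = complete control. Test chemicals in a surfactant-containing non-phytotoxic solvent were sprayed either onto soil preemergence or onto one- to two-leaf, 2–10 cm plants postemergence.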

corn (Zea mays) = assay: Test A pre-/postemergence plant response
Method in brief: as §1

[2] = system: giant foxtail (Setaria faberii); assay: Test A pre-/postemergence plant response
Method in brief: as §1

[3] = system: large crabgrass (Digitaria sanguinalis); assay: Test A pre-/postemergence plant response
Method in brief: as §1

[4] = system: morningglory (Ipomoea spp.); assay: Test A pre-/postemergence plant response
Method in brief: as §1

[5] = system: pigweed (Amaranthus retroflexus); assay: Test A pre-/postemergence plant response
Method in brief: as §1

[6] = system: velvetleaf (Abutilon theophrasti); assay: Test A pre-/postemergence plant response
Method in brief: as §1

[7] = system: wheat (Triticum aestivum); assay: Test A pre-/postemergence plant response
Method in brief: as §1

[8] = system: winter barley (Hordeum vulgare); assay: Test B postemergence plant response
Method in brief: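 Plants grown in peat/vermiculite medium were sprayed postemergence at 2–18 cm height (1- to 4-leaf stage). After 13–15 days in the greenhouse, response was rated visually against untreated controls on a 0–100 scale (0 no effect, 100 complete control).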

[9] = system: barnyardgrass (Echinochloa crus-galli); assay: Test B flooded paddy test; conditions: for Plant response rating, Flood, Barnyardgrass: 250 g ai/ha, flooded paddy test, visual rating on 0 to 100 scale (0 no effect, 100 complete control) after 13 to 15 days; for Plant response rating, Barnyardgrass: Flood (flooded paddy test), 13 to 15 days
Method in brief: (§2)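 Rice, umbrella sedge, ducksalad and barnyardgrass were grown to the 2-leaf stage, flooded to 3 cm, and compound was applied directly to the paddy water, with that depth kept throughout. After 13 to 15 days in the greenhouse, plants were visually rated against controls on a 0 (no effect) to 100 (complete control) scale.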

[10] = system: ducksalad (Heteranthera limosa); assay: Test B flooded paddy test; conditions: for Plant response rating, Flood, Ducksalad: 250 g ai/ha, flooded paddy test, visual rating on 0 to 100 scale (0 no effect, 100 complete control) after 13 to 15 days; for Plant response rating, Ducksalad: Flood (flooded paddy test), 13 to 15 days
Method in brief: as §2

rice (Oryza sativa) = assay: Test B flooded paddy test; conditions: for Plant response rating, Flood, Rice: 250 g ai/ha, flooded paddy test, visual rating on 0 to 100 scale (0 no effect, 100 complete control) after 13 to 15 days; for Plant response rating, Rice: Flood (flooded paddy test), 13 to 15 days
Method in brief: as §2

[11] = system: umbrella sedge (Cyperus difformis); assay: Test B flooded paddy test; conditions: for Plant response rating, Flood, Sedge, Umbrella: 250 g ai/ha, flooded paddy test, visual rating on 0 to 100 scale (0 no effect, 100 complete control) after 13 to 15 days; for Plant response rating, Sedge, Umbrella: Flood (flooded paddy test), 13 to 15 days
Method in brief: as §2

[12] = Postemergence, 125 g ai/ha, visual injury, 0 to 100 scale (0 no effect, 100 complete control), approx. ten days
[13] = Postemergence, 500 g ai/ha, 0 to 100 scale, 0 = no effect, 100 = complete control, approx. ten days
[14] = Preemergence, 125 g ai/ha, 0 to 100 scale, 0 = no effect, 100 = complete control
[15] = Preemergence, 500 g ai/ha, visual injury, 0 to 100 scale (0 no effect, 100 complete control), approx. ten days
[16] = 31 g ai/ha, postemergence, scale 0 to 100, 0 is no effect, 100 is complete control
[17] = Postemergence, 250 g ai/ha, scale 0 to 100 (0 no effect, 100 complete control)
[18] = 31 g ai/ha, scale of 0 to 100 where 0 is no effect and 100 is complete control
[19] = 62 g ai/ha, scale of 0 to 100 where 0 is no effect and 100 is complete control
[20] = 125 g ai/ha, scale 0 to 100, 0 is no effect, 100 is complete control
[21] = Postemergence, 125 g ai/ha, 0 to 100 scale where 0 is no effect and 100 is complete control
[22] = Postemergence, 500 g ai/ha, visual injury, 0 to 100 scale (0 no effect, 100 complete control), approx. ten days
[23] = Preemergence, 500 g ai/ha, 0 to 100 scale, 0 = no effect, 100 = complete control
[24] = Flood, 31 g ai/ha, scale 0 to 100 (0 no effect, 100 complete control)

CCCCc1ncc(C(=O)C2=C(O)CCCC2=O)c(=O)n1-c1cccc(C)c1 [Compound 63]
Barnyardgrass plant response rating [1, 12]: 70 | Plant response rating, Barnyardgrass [1, 13]: 90 | Plant response rating, Barnyardgrass [1, 14]: 10 | Plant response rating, Barnyardgrass [1, 15]: 90 | Corn plant response rating (corn (Zea mays); [12]): 10 | Plant response rating, Corn (corn (Zea mays); [13]): 50 | Plant response rating, Corn (corn (Zea mays); [14]): 0 | Plant response rating, Corn (corn (Zea mays); [15]): 0 | Foxtail, Giant plant response rating [2, 12]: 60 | Plant response rating, Foxtail, Giant [2, 13]: 80 | Plant response rating, Foxtail, Giant [2, 14]: 50 | Plant response rating, Foxtail, Giant [2, 15]: 80 | Crabgrass, Large plant response rating [3, 12]: 80 | Plant response rating, Crabgrass, Large [3, 13]: 90 | Plant response rating, Crabgrass, Large [3, 14]: 90 | Plant response rating, Crabgrass, Large [3, 15]: 100 | Morningglory plant response rating [4, 12]: 100 | Plant response rating, Morningglory [4, 13]: 100 | Plant response rating, Morningglory [4, 14]: 10 | Plant response rating, Morningglory [4, 15]: 70 | Pigweed plant response rating [5, 12]: 90 | Plant response rating, Pigweed [5, 13]: 100 | Plant response rating, Pigweed [5, 14]: 100 | Plant response rating, Pigweed [5, 15]: 100 | Velvetleaf plant response rating [6, 12]: 100 | Plant response rating, Velvetleaf [6, 13]: 100 | Plant response rating, Velvetleaf [6, 14]: 80 | Plant response rating, Velvetleaf [6, 15]: 90 | Wheat plant response rating [7, 12]: 0 | Plant response rating, Wheat [7, 13]: 0 | Plant response rating, Wheat [7, 15]: 0 | Plant response rating, Barley [8, 16]: 0 | Plant response rating, Barley ([8]; Postemergence, 62 g ai/ha, scale 0 (no effect) to 100 (complete control), 13 to 15 days): 0 | Plant response rating, Barley ([8]; Postemergence, 125 g ai/ha, visual rating after 13 to 15 days, scale 0 (no effect) to 100 (complete control)): 0 | Plant response rating, Barley [8, 17]: 0 | Plant response rating, Flood, Barnyardgrass [9]: 10 | Plant response rating, Barnyardgrass [9, 18]: 0 | Plant response rating, Barnyardgrass [9, 19]: 0 | Plant response rating, Barnyardgrass [9, 20]: 0 | Plant response rating, Flood, Ducksalad [10]: 40 | Plant response rating, Ducksalad [10, 18]: 0 | Plant response rating, Ducksalad [10, 19]: 20 | Plant response rating, Ducksalad [10, 20]: 40 | Plant response rating, Flood, Rice (rice (Oryza sativa)): 10 | Plant response rating, Rice (rice (Oryza sativa); [18]): 0 | Plant response rating, Rice (rice (Oryza sativa); [19]): 0 | Plant response rating, Rice (rice (Oryza sativa); [20]): 0 | Plant response rating, Flood, Sedge, Umbrella [11]: 0 | Plant response rating, Sedge, Umbrella [11, 18]: 0 | Plant response rating, Sedge, Umbrella [11, 19]: 0 | Plant response rating, Sedge, Umbrella [11, 20]: 0

COCCn1c(-c2cccc(F)c2)ncc(C(=O)C2=C(O)C3CCC(C3)C2=O)c1=O (centres unmarked) [Compound 235]
Plant response rating, Barnyardgrass [1, 21]: 90 | Barnyardgrass plant response rating [1, 22]: 100 | Plant response rating, Barnyardgrass [1, 14]: 90 | Plant response rating, Barnyardgrass [1, 23]: 100 | Plant response rating, Corn (corn (Zea mays); [21]): 80 | Corn plant response rating (corn (Zea mays); [22]): 90 | Plant response rating, Corn (corn (Zea mays); [14]): 20 | Plant response rating, Corn (corn (Zea mays); [23]): 70 | Plant response rating, Foxtail, Giant [2, 21]: 90 | Foxtail, Giant plant response rating [2, 22]: 100 | Plant response rating, Foxtail, Giant [2, 14]: 70 | Plant response rating, Foxtail, Giant [2, 23]: 90 | Plant response rating, Crabgrass, Large [3, 21]: 100 | Crabgrass, Large plant response rating [3, 22]: 100 | Plant response rating, Crabgrass, Large [3, 14]: 100 | Plant response rating, Crabgrass, Large [3, 23]: 100 | Plant response rating, Morningglory [4, 21]: 100 | Morningglory plant response rating [4, 22]: 100 | Plant response rating, Morningglory [4, 14]: 80 | Plant response rating, Morningglory [4, 23]: 90 | Plant response rating, Pigweed [5, 21]: 100 | Pigweed plant response rating [5, 22]: 100 | Plant response rating, Pigweed [5, 14]: 90 | Plant response rating, Pigweed [5, 23]: 90 | Plant response rating, Velvetleaf [6, 21]: 100 | Velvetleaf plant response rating [6, 22]: 100 | Plant response rating, Velvetleaf [6, 14]: 100 | Plant response rating, Velvetleaf [6, 23]: 100 | Plant response rating, Wheat [7, 21]: 50 | Wheat plant response rating [7, 22]: 80 | Plant response rating, Wheat [7, 14]: 10 | Plant response rating, Wheat [7, 23]: 40 | Plant response rating, Barley ([8]; Postemergence, 31 g ai/ha, 0 to 100 scale (0 no effect, 100 complete control)): 0 | Plant response rating, Barley ([8]; Postemergence, 62 g ai/ha, scale 0 to 100 (0 no effect, 100 complete control)): 30 | Plant response rating, Barley ([8]; Postemergence, 125 g ai/ha, scale 0 to 100 (0 no effect, 100 complete control)): 40 | Plant response rating, Flood, Barnyardgrass [9]: 75 | Plant response rating, Barnyardgrass [9, 19]: 20 | Plant response rating, Barnyardgrass [9, 20]: 50 | Barnyardgrass plant response rating [9, 24]: 0 | Plant response rating, Flood, Ducksalad [10]: 100 | Plant response rating, Ducksalad [10, 19]: 95 | Plant response rating, Ducksalad [10, 20]: 100 | Ducksalad plant response rating [10, 24]: 95 | Plant response rating, Flood, Rice (rice (Oryza sativa)): 55 | Plant response rating, Rice (rice (Oryza sativa); [19]): 0 | Plant response rating, Rice (rice (Oryza sativa); [20]): 45 | Rice plant response rating (rice (Oryza sativa); [24]): 0 | Plant response rating, Flood, Sedge, Umbrella [11]: 80 | Plant response rating, Sedge, Umbrella [11, 19]: 70 | Plant response rating, Sedge, Umbrella [11, 20]: 80 | Sedge, Umbrella plant response rating [11, 24]: 0

O=C1CCCC(O)=C1C(=O)c1cnc(-c2cccc(Cl)c2)n(-c2ccc(Cl)cc2)c1=O [Compound 64]
Barnyardgrass plant response rating [1, 12]: 50 | Plant response rating, Barnyardgrass [1, 13]: 90 | Plant response rating, Barnyardgrass [1, 14]: 10 | Plant response rating, Barnyardgrass [1, 15]: 90 | Corn plant response rating (corn (Zea mays); [12]): 0 | Plant response rating, Corn (corn (Zea mays); [13]): 60 | Plant response rating, Corn (corn (Zea mays); [14]): 0 | Plant response rating, Corn (corn (Zea mays); [15]): 0 | Foxtail, Giant plant response rating [2, 12]: 60 | Plant response rating, Foxtail, Giant [2, 13]: 80 | Plant response rating, Foxtail, Giant [2, 14]: 50 | Plant response rating, Foxtail, Giant [2, 15]: 70 | Crabgrass, Large plant response rating [3, 12]: 80 | Plant response rating, Crabgrass, Large [3, 13]: 90 | Plant response rating, Crabgrass, Large [3, 14]: 80 | Plant response rating, Crabgrass, Large [3, 15]: 90 | Morningglory plant response rating [4, 12]: 90 | Plant response rating, Morningglory [4, 13]: 100 | Plant response rating, Morningglory [4, 14]: 0 | Plant response rating, Morningglory [4, 15]: 0 | Pigweed plant response rating [5, 12]: 90 | Plant response rating, Pigweed [5, 13]: 100 | Plant response rating, Pigweed [5, 14]: 80 | Plant response rating, Pigweed [5, 15]: 100 | Velvetleaf plant response rating [6, 12]: 100 | Plant response rating, Velvetleaf [6, 13]: 100 | Plant response rating, Velvetleaf [6, 14]: 60 | Plant response rating, Velvetleaf [6, 15]: 90 | Wheat plant response rating [7, 12]: 0 | Plant response rating, Wheat [7, 13]: 30 | Plant response rating, Wheat [7, 14]: 0 | Plant response rating, Wheat [7, 15]: 0 | Plant response rating, Barley [8, 16]: 15 | Plant response rating, Barley [8, 17]: 35 | Plant response rating, Flood, Barnyardgrass [9]: 0 | Plant response rating, Barnyardgrass [9, 18]: 0 | Plant response rating, Barnyardgrass [9, 19]: 0 | Plant response rating, Barnyardgrass [9, 20]: 0 | Plant response rating, Flood, Ducksalad [10]: 60 | Plant response rating, Ducksalad [10, 18]: 30 | Plant response rating, Ducksalad [10, 19]: 30 | Plant response rating, Ducksalad [10, 20]: 50 | Plant response rating, Flood, Rice (rice (Oryza sativa)): 0 | Plant response rating, Rice (rice (Oryza sativa); [18]): 0 | Plant response rating, Rice (rice (Oryza sativa); [19]): 0 | Plant response rating, Rice (rice (Oryza sativa); [20]): 0 | Plant response rating, Flood, Sedge, Umbrella [11]: 40 | Plant response rating, Sedge, Umbrella [11, 18]: 0 | Plant response rating, Sedge, Umbrella [11, 19]: 0 | Plant response rating, Sedge, Umbrella [11, 20]: 0
